In US20230002798A1, “PROCESS FOR THE PREPARATION OF A FERMENTABLE SUGAR COMPOSITION AND THE FERMENTATION THEREOF” (WeissBioTech GmbH, priority 2019, published 2023):

Molecular target: Agl1 (Bifidobacterium breve, UniProt C0JP82)
Experiment: Product inhibition of pNPG hydrolysis
Settings: 2 mM pNPG

OC[C@H]1O[C@H](O[C@H]2[C@H](O)[C@@H](O)C(O)O[C@@H]2CO)[C@H](O)[C@@H](O)[C@@H]1O (mixture of isomers) [maltose]
IC50 (product inhibition): 100 mg/mL
